Reference: ChEMBL document CHEMBL5579839, “Discovery of new cyclopropane sulfonamide derivatives as EGFR inhibitors to overcome C797S-mediated resistance and EGFR double mutation” (Eur J Med Chem, 2024)
Calls of active or inactive are those of the source. The calls are words filed in the database; no cut-off is given here.

Key:
[1] = target: Epidermal growth factor receptor (Homo sapiens, UniProt P00533, C797S/L858R/T790M); experiment: Inhibition of EGFR C797S/T790M/L858R mutant (unknown origin)
[2] = Cytotoxicity against human L02 cells; format: toxicity, cell-based
BaF3 [3] = experiment: Inhibition of cell migration in mouse BaF3 cells harboring EGFR L858R/T790M/C797S mutant by transwell assay; format: functional, cell-based
NCI-H1975 [4] = experiment: Induction of apoptosis in human NCI-H1975 cells assessed as necrotic cells at 10 nM incubated for 24 hrs by Annexin V-FITC/PI staining based flow cytometry (reference value: 2.89 %); format: functional
[5] = Toxicity in nude mouse allografted with mouse BaF3 cells assessed as lesion in kidney at 50 mg/kg, po for 7 days by H and E staining based analysis; format: organism-based; conditions: in vivo, 168 h, time 7 day
BaF3 [6] = experiment: Inhibition of EGFR L858R/T790M/C797S mutant in mouse BaF3 cells assessed as reduction in AKT phosphorylation incubated for 24 hrs by Western blot analysis; format: cell-based; conditions: dose <= 100.0 nM
NCI-H1975 [7] = experiment: Inhibition of neovascularization in human NCI-H1975 cells xenografted in nude mouse at 50 mg/kg, po for 7 days by IHC analysis; format: functional, organism-based; conditions: time 7.0 day
BaF3 [8] = experiment: Induction of apoptosis in mouse BaF3 cells harboring EGFR L858R/T790M/C797S mutant assessed as necrotic cells at 10 nM incubated for 24 hrs by Annexin V-FITC/PI staining based flow cytometry (reference value: 0.06 %); format: functional
NCI-H1975 [9] = experiment: Induction of apoptosis in human NCI-H1975 cells assessed as late apoptotic cells at 10 nM incubated for 24 hrs by Annexin V-FITC/PI staining based flow cytometry (reference value: 3.55 %); format: functional
[10] = target: Vascular endothelial growth factor receptor 2 (Homo sapiens) (UniProt P35968); experiment: Binding affinity to KDR (unknown origin) at 100 nM by kinase profiling analysis
BaF3 [11] = experiment: Inhibition of cell invasion in mouse BaF3 cells harboring EGFR L858R/T790M/C797S mutant by transwell assay; format: functional, cell-based
BaF3 [12] = experiment: Induction of apoptosis in mouse BaF3 cells harboring EGFR L858R/T790M/C797S mutant assessed as early apoptotic cells at 10 nM incubated for 24 hrs by Annexin V-FITC/PI staining based flow cytometry (reference value: 0.15 %); format: functional
BaF3 [13] = experiment: Antitumor activity against mouse BaF3 cells allografted in nude mouse at 50 mg/kg, po measured for 7 days relative to control; format: functional; conditions: BaF3, 168 h, time 7 day, read-out: TGI
[14] = target: Platelet-derived growth factor receptor beta (Homo sapiens) (UniProt P09619); experiment: Binding affinity to PDGFR (unknown origin) at 100 nM by kinase profiling analysis
BaF3 [15] = experiment: Antiproliferative activity against mouse BaF3 cells harboring EGFR L858R/T790M/C797S mutant assessed as inhibition of sphere formation incubated for 72 hrs by CCK8 assay; format: functional, cell-based; conditions: BaF3, 72 h
BaF3 [16] = experiment: Induction of apoptosis in mouse BaF3 cells harboring EGFR L858R/T790M/C797S mutant assessed as viable cells at 10 nM incubated for 24 hrs by Annexin V-FITC/PI staining based flow cytometry (reference value: 99.77 %); format: functional; conditions: read-out: Activity
[17] = Cytotoxicity against human HaCaT cells; format: toxicity, cell-based
[18] = Toxicity in nude mouse allografted with mouse BaF3 cells assessed as animal health at 50 mg/kg, po measured for 7 days; format: organism-based; conditions: in vivo, 168 h, time 7 day
[19] = Toxicity in nude mouse allografted with mouse BaF3 cells assessed as damage in liver at 50 mg/kg, po for 7 days by H and E staining based analysis; format: organism-based; conditions: in vivo, 168 h, time 7 day
BaF3 [20] = experiment: Inhibition of colony formation in mouse BaF3 cells harboring EGFR L858R/T790M/C797S mutant at 5 to 10 nM by crystal violet staining based analysis; format: functional, cell-based; conditions: dose 5-10 nM
[21] = Toxicity in nude mouse allografted with mouse BaF3 cells assessed as lesion in lung at 50 mg/kg, po for 7 days by H and E staining based analysis; format: organism-based; conditions: in vivo, 168 h, time 7 day
BaF3 [22] = experiment: Induction of apoptosis in mouse BaF3 cells harboring EGFR L858R/T790M/C797S mutant assessed as increase in green fluorescence at 10 to 25 nM by TUNNEL method; format: functional, cell-based; conditions: dose 10-25 nM
NCI-H1975 [23] = experiment: Inhibition of fibronectin activation in human NCI-H1975 cells xenografted in nude mouse at 50 mg/kg, po for 7 days by IHC analysis; format: functional, organism-based; conditions: time 7.0 day
NCI-H1975 [24] = experiment: Inhibition of cell invasion in human NCI-H1975 cells by transwell assay; format: functional, cell-based
BaF3 [25] = experiment: Antitumor activity against mouse BaF3 cells allografted in nude mouse assessed as reduction of tumor volume at 50 mg/kg, po measured after 2 to 7 days; format: functional, organism-based; conditions: time 2-7 day
[26] = Toxicity in nude mouse allografted with mouse BaF3 cells assessed as lesion in liver at 50 mg/kg, po for 7 days by H and E staining based analysis; format: organism-based; conditions: in vivo, 168 h, time 7 day
NCI-H1975 [27] = experiment: Induction of apoptosis in human NCI-H1975 cells assessed as early apoptotic cells at 10 nM incubated for 24 hrs by Annexin V-FITC/PI staining based flow cytometry (reference value: 2.18 %); format: functional
[28] = Toxicity in nude mouse xenografted with human NCI-H1975 cells assessed as body weight loss at 50 mg/kg, po measured for 7 days; format: organism-based; conditions: in vivo, 168 h, time 7 day
[29] = target: T1, Epidermal growth factor receptor (Homo sapiens, UniProt P00533); experiment: Inhibition of EGFR in human NCI-H1975 cells assessed as reduction in AKT phosphorylation incubated for 24 hrs by Western blot analysis; format: cell-based; conditions: dose <= 50.0 nM
NCI-H1975 [30] = experiment: Induction of apoptosis in human NCI-H1975 cells assessed as increase in green fluorescence at 10 to 25 nM by TUNNEL method; format: functional, cell-based; conditions: dose 10-25 nM
[31] = target: Epidermal growth factor receptor (Homo sapiens, UniProt P00533, L858R/T790M); experiment: Inhibition of EGFR T790M/L858R mutant (unknown origin)
BaF3 [32] = experiment: Antiproliferative activity against mouse BaF3 cells harboring EGFR C797S/L858R/T790M mutant; format: functional, cell-based
BaF3 [33] = experiment: Inhibition of EGFR L858R/T790M/C797S mutant phosphorylation in mouse BaF3 cells assessed as reduction in red fluorescence incubated for 24 hrs by immunofluorescence analysis; format: cell-based
[34] = target: T1, Epidermal growth factor receptor; experiment: Inhibition of EGFR phosphorylation in human NCI-H1975 cells assessed as reduction in red fluorescence incubated for 24 hrs by immunofluorescence analysis; format: cell-based
BaF3 [35] = experiment: Antitumor activity against mouse BaF3 cells allografted in nude mouse assessed as reduction of tumor weight at 50 mg/kg, po measured for 7 days; format: functional, organism-based; conditions: time 7.0 day
[36] = Cytotoxicity against human HK-2 cells; format: toxicity, cell-based
[37] = Toxicity in nude mouse allografted with mouse BaF3 cells assessed as body weight loss at 50 mg/kg, po measured for 7 days; format: organism-based; conditions: in vivo, 168 h, time 7 day
NCI-H1975 [38] = experiment: Induction of apoptosis in human NCI-H1975 cells assessed as viable cells at 10 nM incubated for 24 hrs by Annexin V-FITC/PI staining based flow cytometry (reference value: 91.38 %); format: functional; conditions: read-out: Activity

T1 sequence (P00533 whole entry): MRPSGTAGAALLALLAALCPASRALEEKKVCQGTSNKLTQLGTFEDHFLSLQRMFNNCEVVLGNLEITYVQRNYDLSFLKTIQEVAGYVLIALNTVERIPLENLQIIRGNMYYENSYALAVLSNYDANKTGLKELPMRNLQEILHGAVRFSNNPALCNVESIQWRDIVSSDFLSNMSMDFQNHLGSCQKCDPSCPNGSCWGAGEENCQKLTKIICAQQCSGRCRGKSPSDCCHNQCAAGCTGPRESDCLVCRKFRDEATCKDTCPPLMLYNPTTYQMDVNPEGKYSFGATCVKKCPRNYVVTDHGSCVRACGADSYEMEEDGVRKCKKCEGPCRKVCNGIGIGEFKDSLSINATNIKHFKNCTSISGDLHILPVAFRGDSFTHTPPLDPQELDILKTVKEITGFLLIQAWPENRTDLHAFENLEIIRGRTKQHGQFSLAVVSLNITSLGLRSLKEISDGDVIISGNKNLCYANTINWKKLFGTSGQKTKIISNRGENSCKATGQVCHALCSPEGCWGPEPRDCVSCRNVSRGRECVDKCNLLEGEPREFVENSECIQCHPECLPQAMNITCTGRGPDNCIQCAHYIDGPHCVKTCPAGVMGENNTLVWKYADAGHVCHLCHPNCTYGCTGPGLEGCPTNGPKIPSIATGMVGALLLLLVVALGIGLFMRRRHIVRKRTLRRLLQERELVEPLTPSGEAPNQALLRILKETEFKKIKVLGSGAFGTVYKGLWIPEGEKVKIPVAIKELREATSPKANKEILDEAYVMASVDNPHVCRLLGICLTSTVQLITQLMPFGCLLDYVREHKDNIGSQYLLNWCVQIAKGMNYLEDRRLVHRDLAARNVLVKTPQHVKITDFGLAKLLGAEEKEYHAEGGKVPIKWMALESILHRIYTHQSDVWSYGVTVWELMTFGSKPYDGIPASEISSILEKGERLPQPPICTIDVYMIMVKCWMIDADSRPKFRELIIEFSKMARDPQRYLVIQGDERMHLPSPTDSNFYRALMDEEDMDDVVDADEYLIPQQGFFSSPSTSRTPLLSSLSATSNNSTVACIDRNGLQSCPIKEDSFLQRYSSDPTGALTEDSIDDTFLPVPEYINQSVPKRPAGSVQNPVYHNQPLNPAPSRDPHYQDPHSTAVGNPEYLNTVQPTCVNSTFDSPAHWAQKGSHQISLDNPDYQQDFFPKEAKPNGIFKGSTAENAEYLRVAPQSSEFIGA
Sequence of Vascular endothelial growth factor receptor 2 (Homo sapiens) (P35968 whole entry): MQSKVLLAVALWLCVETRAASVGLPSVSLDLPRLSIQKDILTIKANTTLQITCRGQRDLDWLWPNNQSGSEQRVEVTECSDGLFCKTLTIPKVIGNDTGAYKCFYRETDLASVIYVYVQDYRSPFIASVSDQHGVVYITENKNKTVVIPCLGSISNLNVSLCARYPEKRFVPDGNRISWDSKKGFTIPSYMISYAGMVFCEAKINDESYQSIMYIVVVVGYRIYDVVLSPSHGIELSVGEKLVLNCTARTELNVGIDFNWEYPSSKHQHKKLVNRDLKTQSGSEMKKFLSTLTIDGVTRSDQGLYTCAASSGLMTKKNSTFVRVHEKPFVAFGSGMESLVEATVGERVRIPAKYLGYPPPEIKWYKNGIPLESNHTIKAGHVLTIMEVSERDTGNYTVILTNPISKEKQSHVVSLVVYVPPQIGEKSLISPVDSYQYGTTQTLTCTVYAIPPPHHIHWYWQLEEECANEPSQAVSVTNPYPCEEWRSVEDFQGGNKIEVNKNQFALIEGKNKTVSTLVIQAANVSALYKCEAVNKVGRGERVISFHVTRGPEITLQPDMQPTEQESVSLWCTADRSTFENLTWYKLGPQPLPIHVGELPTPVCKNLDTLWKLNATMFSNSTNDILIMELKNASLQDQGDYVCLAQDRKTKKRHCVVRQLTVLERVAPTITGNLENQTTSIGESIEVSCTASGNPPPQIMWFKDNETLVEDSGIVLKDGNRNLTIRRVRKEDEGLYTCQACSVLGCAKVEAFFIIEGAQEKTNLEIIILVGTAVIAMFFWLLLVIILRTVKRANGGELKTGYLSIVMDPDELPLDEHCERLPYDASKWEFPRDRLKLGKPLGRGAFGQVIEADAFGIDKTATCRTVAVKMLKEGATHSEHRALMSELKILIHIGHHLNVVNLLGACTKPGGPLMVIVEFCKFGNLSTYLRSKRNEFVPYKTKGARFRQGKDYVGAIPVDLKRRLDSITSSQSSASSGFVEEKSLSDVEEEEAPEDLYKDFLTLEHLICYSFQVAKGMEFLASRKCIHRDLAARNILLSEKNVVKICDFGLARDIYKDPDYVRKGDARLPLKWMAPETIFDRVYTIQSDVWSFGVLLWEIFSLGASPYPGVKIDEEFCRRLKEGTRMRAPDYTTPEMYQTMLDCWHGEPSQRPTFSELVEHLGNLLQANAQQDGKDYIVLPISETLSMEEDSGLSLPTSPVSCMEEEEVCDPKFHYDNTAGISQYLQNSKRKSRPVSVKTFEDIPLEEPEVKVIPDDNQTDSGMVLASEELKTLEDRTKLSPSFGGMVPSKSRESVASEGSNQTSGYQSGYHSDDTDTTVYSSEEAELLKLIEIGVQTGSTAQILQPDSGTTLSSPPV
Sequence of Epidermal growth factor receptor (Homo sapiens, UniProt P00533, L858R/T790M) (P00533 25-1210 T790M/L858R limits assumed): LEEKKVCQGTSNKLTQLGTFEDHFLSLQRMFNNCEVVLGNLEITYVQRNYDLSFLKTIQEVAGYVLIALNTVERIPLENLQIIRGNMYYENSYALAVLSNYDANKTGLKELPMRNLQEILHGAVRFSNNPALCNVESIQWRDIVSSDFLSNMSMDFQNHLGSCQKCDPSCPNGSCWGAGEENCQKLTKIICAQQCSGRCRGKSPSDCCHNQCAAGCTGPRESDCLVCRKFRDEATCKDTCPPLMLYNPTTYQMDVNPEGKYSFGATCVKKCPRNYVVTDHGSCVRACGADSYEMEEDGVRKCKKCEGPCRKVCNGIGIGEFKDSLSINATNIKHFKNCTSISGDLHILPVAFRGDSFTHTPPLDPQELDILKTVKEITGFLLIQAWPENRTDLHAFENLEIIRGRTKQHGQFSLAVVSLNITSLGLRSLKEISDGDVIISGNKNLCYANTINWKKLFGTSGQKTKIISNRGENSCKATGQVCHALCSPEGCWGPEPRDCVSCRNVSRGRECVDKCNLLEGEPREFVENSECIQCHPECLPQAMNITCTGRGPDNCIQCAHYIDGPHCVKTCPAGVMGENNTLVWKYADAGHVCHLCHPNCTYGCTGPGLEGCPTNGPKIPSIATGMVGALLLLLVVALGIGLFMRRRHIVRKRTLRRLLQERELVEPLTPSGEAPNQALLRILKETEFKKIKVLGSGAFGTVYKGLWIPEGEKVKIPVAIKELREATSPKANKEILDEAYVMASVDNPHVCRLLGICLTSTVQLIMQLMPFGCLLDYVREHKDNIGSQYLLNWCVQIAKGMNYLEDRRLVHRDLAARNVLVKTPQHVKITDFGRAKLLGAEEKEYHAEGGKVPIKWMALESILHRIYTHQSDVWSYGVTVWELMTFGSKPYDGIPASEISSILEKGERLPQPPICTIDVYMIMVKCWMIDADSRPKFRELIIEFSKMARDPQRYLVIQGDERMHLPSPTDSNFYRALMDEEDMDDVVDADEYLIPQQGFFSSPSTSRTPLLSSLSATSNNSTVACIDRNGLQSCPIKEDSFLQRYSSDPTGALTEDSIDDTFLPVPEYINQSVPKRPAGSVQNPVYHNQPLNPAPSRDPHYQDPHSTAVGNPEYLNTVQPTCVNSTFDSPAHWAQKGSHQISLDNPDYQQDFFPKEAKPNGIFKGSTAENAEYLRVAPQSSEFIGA
Sequence of Platelet-derived growth factor receptor beta (Homo sapiens) (P09619 whole entry): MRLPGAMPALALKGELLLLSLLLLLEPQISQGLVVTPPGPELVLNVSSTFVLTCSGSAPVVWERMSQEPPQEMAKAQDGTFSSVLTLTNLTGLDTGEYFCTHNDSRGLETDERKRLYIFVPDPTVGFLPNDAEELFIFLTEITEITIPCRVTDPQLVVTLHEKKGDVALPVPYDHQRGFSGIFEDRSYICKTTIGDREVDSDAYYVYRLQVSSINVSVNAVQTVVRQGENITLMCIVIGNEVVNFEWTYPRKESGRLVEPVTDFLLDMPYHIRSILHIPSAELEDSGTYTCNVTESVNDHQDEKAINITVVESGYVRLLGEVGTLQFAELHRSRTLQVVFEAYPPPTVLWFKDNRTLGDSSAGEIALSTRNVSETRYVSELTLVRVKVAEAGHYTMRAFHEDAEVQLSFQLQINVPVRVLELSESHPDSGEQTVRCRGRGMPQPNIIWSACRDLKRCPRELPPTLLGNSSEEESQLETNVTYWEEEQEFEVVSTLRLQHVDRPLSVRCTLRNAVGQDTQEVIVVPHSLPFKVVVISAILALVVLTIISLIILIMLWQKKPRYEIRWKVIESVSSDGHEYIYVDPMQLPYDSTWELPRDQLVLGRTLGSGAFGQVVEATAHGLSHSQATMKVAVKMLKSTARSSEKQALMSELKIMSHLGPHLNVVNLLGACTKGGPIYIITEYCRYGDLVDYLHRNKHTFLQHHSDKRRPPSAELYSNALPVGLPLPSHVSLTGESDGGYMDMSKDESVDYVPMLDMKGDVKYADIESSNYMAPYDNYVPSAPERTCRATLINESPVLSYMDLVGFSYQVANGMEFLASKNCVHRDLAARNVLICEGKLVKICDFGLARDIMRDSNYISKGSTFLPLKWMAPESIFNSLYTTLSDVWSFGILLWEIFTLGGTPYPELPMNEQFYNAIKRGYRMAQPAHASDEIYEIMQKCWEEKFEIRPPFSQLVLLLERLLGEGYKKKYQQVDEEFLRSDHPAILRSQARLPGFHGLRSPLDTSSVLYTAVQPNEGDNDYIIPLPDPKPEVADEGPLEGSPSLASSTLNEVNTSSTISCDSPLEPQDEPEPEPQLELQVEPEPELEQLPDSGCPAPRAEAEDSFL

IC50 [1]: 0.61 nM
Activity [10]: Active
Activity [14]: Active
IC50 (BaF3 [15]): 11.2 nM
inhibition [29]: Dose-Dependent Effect
IC50 [31]: 4.76 nM
IC50 (BaF3 [32]): 4 nM
inhibition [34]: Active
Compound: CN1CCCN(c2ccc(Nc3ncc(Br)c(Nc4ccccc4NS(=O)(=O)C4CC4)n3)cc2)CC1
IC50 [2]: 4350 nM
inhibition (BaF3 [3]): Active
Activity (NCI-H1975 [4]): 2.98%
Activity [5]: Non-Toxic
inhibition (BaF3 [6]): Dose-Dependent Effect
inhibition (NCI-H1975 [7]): Active
Activity (BaF3 [8]): 0.48%
Activity (NCI-H1975 [9]): 6.42%
inhibition (BaF3 [11]): Active
Activity (BaF3 [12]): 9.36%
inhibition in vivo at 50 mg/kg (BaF3 [13]): 71.2%
viability at 0.01 µM (BaF3 [16]): 20.7%
IC50 [17]: 5410 nM
Activity [18]: Non-Toxic
Activity [19]: Non-Toxic
inhibition (BaF3 [20]): Active
Activity [21]: Non-Toxic
Activity (BaF3 [22]): Active
inhibition (NCI-H1975 [23]): Active
inhibition (NCI-H1975 [24]): Active
Activity (BaF3 [25]): Active
Activity [26]: Non-Toxic
Activity (NCI-H1975 [27]): 13.31%
Activity [28]: Non-Toxic
Activity (NCI-H1975 [30]): Active
inhibition (BaF3 [33]): Active
Activity (BaF3 [35]): Active
IC50 [36]: 2780 nM
Activity [37]: Non-Toxic
viability at 0.01 µM (NCI-H1975 [38]): 77.3%
